Assay [1] deals with TNF-α in human PBMCs. The assay is described as follows: R848-induced TNF-α in human PBMCs Assay. It counts as cell-based. As to conditions: Homo sapiens, PBMC, 4 h, read-out: TNFα (PBMC, R848) (IC50, μM). In a few lines:
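Human PBMCs at 200K/well were pretreated with compound, then R848-stimulated for 4 h at 37 °C, 5% CO2. Supernatant TNF-α quantified by chemiluminescent ELISA; EC50 from curve fitting.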

Assay [2] deals with TNF-α in Human Primary Monocyte-Derived Dendritic Cells. The assay is described as follows: Gardiquimod-Induced TNF-α in Human Primary Monocyte-Derived Dendritic Cells. It counts as cell-based. As to conditions: Dendritic cell, IFNγ-primed monocyte-derived dendritic cells, 4 μg/ml Gardiquimod, 6 hours, TNF-α ELISA, read-out: TNFα (DC, GARD) (IC50). The method in brief: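 Monocytes differentiated 7 days with GM-CSF and IL-4, then primed 24 h with 50 ng/ml IFN-γ. Compound added 1 h before 6 h stimulation with 4 μg/ml Gardiquimod, 0.5% DMSO final. Supernatant TNF-α measured by chemiluminescent ELISA; EC50 from curve fitting.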
In general terms: An ELISA detects its analyte on a solid surface through an enzyme-linked reagent.

For assay [3], the system named is IL23p19 in THP-1 Cells. The assay is described as follows: LPS Induced IL23p19 in THP-1 Cells (with IFNγ Primed) Assay. It counts as cell-based. As to conditions: Homo sapiens, THP-1, 18 h, read-out: IL23 (THP, LPS) (IC50, μM). In a few lines: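 THP-1 cells (50K/well) primed with IFNγ (50 ng/mL) about 18 h, then given compound and stimulated with LPS for 18 h at 37 °C. Secreted IL-23p19 measured by sandwich ELISA with chemiluminescent read-out, giving EC50. Cell Titer Glo used on the remaining cells for toxicity.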

Assay [4] deals with IRAK4 (Homo sapiens (Human), UniProt Q9NWZ3). The assay is described as follows: IRAK4 ADP-Glo Assay. As to conditions: MBP substrate. It counts as biochemical. The method in brief:
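Human IRAK4 kinase reaction with MBP substrate plus ATP in Tris-HCl/MgCl2/BSA/DTT buffer, pH 7.4, run 60 min at room temperature or 30 min at 30 °C. ADP formed was measured by ADP-Glo luminescence after ATP depletion (40 min) and detection reagent (30 min).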
A general note: ADP-Glo first removes unused ATP, then detects ADP through luciferase.

Sequence of IRAK4 (Q9NWZ3 whole entry): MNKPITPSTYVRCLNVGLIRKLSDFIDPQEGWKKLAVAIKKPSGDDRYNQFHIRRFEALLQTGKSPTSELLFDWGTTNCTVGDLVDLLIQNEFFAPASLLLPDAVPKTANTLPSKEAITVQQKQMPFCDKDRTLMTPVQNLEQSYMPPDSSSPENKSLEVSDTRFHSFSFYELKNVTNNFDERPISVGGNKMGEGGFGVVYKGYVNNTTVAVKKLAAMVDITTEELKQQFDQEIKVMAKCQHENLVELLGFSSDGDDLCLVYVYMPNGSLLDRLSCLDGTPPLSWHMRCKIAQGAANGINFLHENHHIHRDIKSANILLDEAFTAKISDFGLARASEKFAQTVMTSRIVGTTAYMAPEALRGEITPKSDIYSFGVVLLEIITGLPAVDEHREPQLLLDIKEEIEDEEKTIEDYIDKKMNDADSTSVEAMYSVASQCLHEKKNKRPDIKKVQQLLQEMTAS

As a reminder, the IC50 is the concentration needed to halve the response being measured. For `CC(C)Oc1cc2c(O[C@@H]3CCCN(C(=O)CC#N)C3)ncc(-c3cnn(C4CCC4)c3)c2cc1C(N)=O` [Compound I-115, (R)-1-((1-(2-cyanoacetyl)piperidin-3-yl)oxy)-4-(1-cyclobutyl-1H-pyrazol-4-yl)-7-isopropoxyisoquinoline-6-carboxamide], the IC50 stood at 0.443 µM in assay [1], 450 nM in assay [2], 0.911 µM in assay [3] and 13.2 nM in assay [4].
Taken in the same sequence, the figures for `CC(C)Oc1cc2c(O[C@@H]3CCCN(C(=O)CC#N)C3)ncc(-c3cnn(C4CCCC4)c3)c2cc1C(N)=O` [Compound I-116, (R)-1-((1-(2-cyanoacetyl)piperidin-3-yl)oxy)-4-(1-cyclopentyl-1H-pyrazol-4-yl)-7-isopropoxyisoquinoline-6-carboxamide] were 0.271 µM, 219 nM, 1.37 µM and 7.7 nM.
`CC(C)Oc1cc2c(O[C@@H]3CCCN(C(=O)CC#N)C3)ncc(-c3cnn(C4CCOCC4)c3)c2cc1C(N)=O` [Compound I-117, (R)-1-((1-(2-cyanoacetyl)piperidin-3-yl)oxy)-7-isopropoxy-4-(1-(tetrahydro-2H-pyran-4-yl)-1H-pyrazol-4-yl)isoquinoline-6-carboxamide]: the IC50 was determined as 7.24 µM in assay [1], 1030 nM in assay [2], 3.91 µM in assay [3] and 25.3 nM in assay [4].
Taken in the same sequence, the figures for `CC(C)Oc1cc2c(O[C@@H]3CCCN(C(=O)CC#N)C3)ncc(-c3cnn(CC4CCOCC4)c3)c2cc1C(N)=O` [Compound I-118, (R)-1-((1-(2-cyanoacetyl)piperidin-3-yl)oxy)-7-isopropoxy-4-(1-((tetrahydro-2H-pyran-4-yl)methyl)-1H-pyrazol-4-yl)isoquinoline-6-carboxamide] were 6.5 µM, 1500 nM, 4.2 µM and 20.4 nM.
For the compound `CC(C)Oc1cc2c(O[C@@H]3CCCN(C(=O)CC#N)C3)ncc(-c3cnn(CCC4CCOCC4)c3)c2cc1C(N)=O` [Compound I-119, (R)-1-((1-(2-cyanoacetyl)piperidin-3-yl)oxy)-7-isopropoxy-4-(1-(2-(tetrahydro-2H-pyran-4-yl)ethyl)-1H-pyrazol-4-yl)isoquinoline-6-carboxamide], the IC50 in assay [1] was determined as 2.51 µM; in assay [2], 1020 nM; in assay [3], 2.22 µM; in assay [4] it was 18.4 nM.
For the compound `CC(C)Oc1cc2c(O[C@@H]3CCCN(C(=O)CC#N)C3)ncc(-c3cnn([C@H]4C[C@@H](N(C)C)C4)c3)c2cc1C(N)=O` [Compound I-120, 1-(((R)-1-(2-cyanoacetyl)piperidin-3-yl)oxy)-4-(1-(cis-3-(dimethylamino)cyclobutyl)-1H-pyrazol-4-yl)-7-isopropoxyisoquinoline-6-carboxamide], the IC50 stood at 0.227 µM in assay [1], 423 nM in assay [2], 2.83 µM in assay [3] and 8.4 nM in assay [4].
Taken in the same sequence, the figures for `CC(C)Oc1cc2c(O[C@@H]3CCCN(C(=O)CC#N)C3)ncc(-c3cnn(C4CCN(C(=O)OC(C)(C)C)CC4)c3)c2cc1C(N)=O` [Compound I-121, tert-butyl (R)-4-(4-(6-carbamoyl-1-((1-(2-cyanoacetyl)piperidin-3-yl)oxy)-7-isopropoxyisoquinolin-4-yl)-1H-pyrazol-1-yl)piperidine-1-carboxylate] were 1.76 µM, 1020 nM, 1.9 µM and 12.9 nM.
In the same order, the values of `CC(C)Oc1cc2c(O[C@@H]3CCCN(C(=O)CC#N)C3)ncc(-c3cnn(C4CCN(C)CC4)c3)c2cc1C(N)=O` [Compound I-123, (R)-1-((1-(2-cyanoacetyl)piperidin-3-yl)oxy)-7-isopropoxy-4-(1-(1-methylpiperidin-4-yl)-1H-pyrazol-4-yl)isoquinoline-6-carboxamide] are 0.145 µM, 217 nM, 4.9 µM and 19.2 nM.
Taken in the same sequence, the figures for `CCO[C@H]1CC[C@H](n2cc(-c3cnc(O[C@@H]4CCCN(C(=O)CC#N)C4)c4cc(OC(C)C)c(C(N)=O)cc34)cn2)CC1` [Compound I-124, 1-(((R)-1-(2-cyanoacetyl)piperidin-3-yl)oxy)-4-(1-(trans-4-ethoxycyclohexyl)-1H-pyrazol-4-yl)-7-isopropoxyisoquinoline-6-carboxamide] were 12.2 µM, 352 nM, 0.609 µM and 6.8 nM.

These data come from US20230391748A1, “BICYCLIC INHIBITORS OF IRAK” (priority 2022, published 2023).
